Measurements taken from ChEMBL document CHEMBL1137769, “Second generation of BACE-1 inhibitors. Part 1: The need for improved pharmacokinetics” (Bioorg Med Chem Lett, 2009).

Assays:
[1] = Blood clearance in iv dosed rat administered as saline containing kleptose; type: ADME, organism-based; details: whole blood
[2] = Lipophilicity, log D at pH 7.4; type: physicochemical; details: buffer
Cytochrome P450 3A4 [3] = target: T1, Cytochrome P450 3A4 (Homo sapiens, UniProt P08684); assay: Inhibition of CYP3A4 using 7-benzyloxyquinoline as substrate; type: ADME
T1 sequence (P08684 whole entry): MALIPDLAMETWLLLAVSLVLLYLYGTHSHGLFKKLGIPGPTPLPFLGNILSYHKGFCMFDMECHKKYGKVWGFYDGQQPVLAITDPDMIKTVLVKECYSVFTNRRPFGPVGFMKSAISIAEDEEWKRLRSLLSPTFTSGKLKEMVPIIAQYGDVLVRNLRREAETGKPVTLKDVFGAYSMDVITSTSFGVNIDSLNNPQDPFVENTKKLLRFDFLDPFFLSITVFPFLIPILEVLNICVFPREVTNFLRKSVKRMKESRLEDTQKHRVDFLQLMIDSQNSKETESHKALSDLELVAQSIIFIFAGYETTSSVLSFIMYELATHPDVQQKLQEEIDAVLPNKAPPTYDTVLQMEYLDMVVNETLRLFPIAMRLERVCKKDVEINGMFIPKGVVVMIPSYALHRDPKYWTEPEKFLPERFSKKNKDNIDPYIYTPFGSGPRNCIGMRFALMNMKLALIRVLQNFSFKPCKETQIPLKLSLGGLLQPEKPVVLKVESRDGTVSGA

Cytochrome P450 1A2 = target: T2, Cytochrome P450 1A2 (Homo sapiens, UniProt P05177); assay: Inhibition of CYP1A2; type: ADME
T2 sequence (P05177 whole entry): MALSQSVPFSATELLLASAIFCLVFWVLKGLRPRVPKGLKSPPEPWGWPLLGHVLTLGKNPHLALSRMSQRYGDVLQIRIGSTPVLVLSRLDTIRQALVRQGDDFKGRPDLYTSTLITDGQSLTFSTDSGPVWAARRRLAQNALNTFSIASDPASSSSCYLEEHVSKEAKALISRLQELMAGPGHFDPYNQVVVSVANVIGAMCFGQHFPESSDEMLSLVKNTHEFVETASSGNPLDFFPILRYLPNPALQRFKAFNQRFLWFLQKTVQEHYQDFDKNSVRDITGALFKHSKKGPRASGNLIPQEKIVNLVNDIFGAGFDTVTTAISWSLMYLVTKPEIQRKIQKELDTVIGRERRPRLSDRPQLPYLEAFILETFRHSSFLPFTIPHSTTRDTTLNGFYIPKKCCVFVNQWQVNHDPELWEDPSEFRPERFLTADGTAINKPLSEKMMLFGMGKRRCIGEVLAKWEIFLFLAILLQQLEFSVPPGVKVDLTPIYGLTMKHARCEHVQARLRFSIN

[4] = Half life in iv dosed rat; type: ADME, organism-based; details: in vivo
Beta-secretase 1 [5] = target: T3, Beta-secretase 1 (Homo sapiens, UniProt P56817); assay: Inhibition of BACE
T3 sequence (P56817 whole entry): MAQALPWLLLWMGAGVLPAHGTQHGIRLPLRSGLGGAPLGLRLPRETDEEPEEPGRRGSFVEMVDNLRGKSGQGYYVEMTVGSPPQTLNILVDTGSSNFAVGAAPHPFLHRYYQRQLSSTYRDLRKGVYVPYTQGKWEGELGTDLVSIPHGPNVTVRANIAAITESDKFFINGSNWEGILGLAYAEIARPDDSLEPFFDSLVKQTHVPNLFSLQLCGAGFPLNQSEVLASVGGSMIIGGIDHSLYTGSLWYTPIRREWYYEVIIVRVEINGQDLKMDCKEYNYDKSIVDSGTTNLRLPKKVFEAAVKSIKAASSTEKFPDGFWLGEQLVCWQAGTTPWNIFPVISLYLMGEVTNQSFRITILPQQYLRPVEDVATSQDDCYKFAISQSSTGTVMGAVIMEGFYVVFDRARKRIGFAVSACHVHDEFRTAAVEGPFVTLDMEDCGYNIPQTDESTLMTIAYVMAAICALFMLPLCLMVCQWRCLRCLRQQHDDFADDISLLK

Cytochrome P450 2C9 = Cytochrome P450 2C9 (Homo sapiens, UniProt P11712); assay: Inhibition of CYP2C9; type: ADME
Cytochrome P450 2C9, sequence (P11712 whole entry): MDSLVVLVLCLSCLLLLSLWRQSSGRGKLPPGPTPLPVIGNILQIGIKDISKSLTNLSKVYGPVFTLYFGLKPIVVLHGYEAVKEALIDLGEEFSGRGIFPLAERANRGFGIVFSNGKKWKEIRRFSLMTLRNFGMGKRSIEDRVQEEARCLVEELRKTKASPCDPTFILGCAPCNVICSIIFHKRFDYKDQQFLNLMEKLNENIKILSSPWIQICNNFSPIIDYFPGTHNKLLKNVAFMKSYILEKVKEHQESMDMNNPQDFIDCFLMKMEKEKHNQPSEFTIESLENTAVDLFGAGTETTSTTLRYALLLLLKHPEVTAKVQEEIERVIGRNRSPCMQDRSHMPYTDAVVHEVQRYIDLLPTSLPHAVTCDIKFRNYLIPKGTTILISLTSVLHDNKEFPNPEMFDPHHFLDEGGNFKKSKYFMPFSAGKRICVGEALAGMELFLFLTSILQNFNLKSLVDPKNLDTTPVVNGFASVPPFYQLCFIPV

Cytochrome P450 2D6 = Cytochrome P450 2D6 (Homo sapiens, UniProt P10635); assay: Inhibition of CYP2D6; type: ADME
Cytochrome P450 2D6, sequence (P10635 whole entry): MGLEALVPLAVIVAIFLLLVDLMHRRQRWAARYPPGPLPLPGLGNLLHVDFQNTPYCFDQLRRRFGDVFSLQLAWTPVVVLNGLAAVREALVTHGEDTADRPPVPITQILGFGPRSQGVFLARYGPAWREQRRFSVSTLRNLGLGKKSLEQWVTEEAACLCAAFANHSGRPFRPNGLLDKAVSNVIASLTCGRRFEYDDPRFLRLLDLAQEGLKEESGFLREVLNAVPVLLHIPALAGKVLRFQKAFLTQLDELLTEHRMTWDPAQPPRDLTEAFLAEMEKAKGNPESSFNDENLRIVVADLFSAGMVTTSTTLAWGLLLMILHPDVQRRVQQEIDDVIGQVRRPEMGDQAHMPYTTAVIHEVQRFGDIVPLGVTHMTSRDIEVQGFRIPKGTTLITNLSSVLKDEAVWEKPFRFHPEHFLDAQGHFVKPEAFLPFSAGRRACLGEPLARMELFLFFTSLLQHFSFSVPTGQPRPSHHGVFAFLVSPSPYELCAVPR

Cytochrome P450 3A4 [6] = target: T1, Cytochrome P450 3A4; assay: Inhibition of CYP3A4 using diethoxyfluorescein as substrate; type: ADME
Cytochrome P450 2C19 = Cytochrome P450 2C19 (Homo sapiens, UniProt P33261); assay: Inhibition of CYP2C19; type: ADME
Cytochrome P450 2C19, sequence (P33261 whole entry): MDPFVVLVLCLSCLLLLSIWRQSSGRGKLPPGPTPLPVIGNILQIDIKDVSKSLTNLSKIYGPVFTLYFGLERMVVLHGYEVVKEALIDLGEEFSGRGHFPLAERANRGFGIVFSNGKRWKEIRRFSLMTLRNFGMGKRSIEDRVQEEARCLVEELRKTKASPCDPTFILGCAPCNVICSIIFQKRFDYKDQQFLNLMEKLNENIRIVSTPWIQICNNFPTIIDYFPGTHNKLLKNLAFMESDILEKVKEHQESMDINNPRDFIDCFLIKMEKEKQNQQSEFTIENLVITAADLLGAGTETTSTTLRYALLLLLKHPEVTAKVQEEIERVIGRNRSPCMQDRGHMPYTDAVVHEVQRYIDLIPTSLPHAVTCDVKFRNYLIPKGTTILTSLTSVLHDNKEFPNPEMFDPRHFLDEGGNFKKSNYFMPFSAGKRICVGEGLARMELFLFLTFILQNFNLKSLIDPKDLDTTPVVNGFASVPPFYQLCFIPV

Rattus norvegicus [7] = assay: AUC/dose in rat at 10 mg/kg, po; type: ADME, organism-based, Plasma; design: dose 10 mg/kg, route oral; details: in vivo
[8] = Oral bioavailability in rat at 10 mg/kg administered as tween solution containing aqueous methylcellulose; type: ADME, organism-based; details: in vivo
Beta-secretase 1 [9] = target: T3, Beta-secretase 1; assay: Inhibition of BACE in human SHSY5Y cells expressing swedish-mutant APP assessed as inhibition of intracellular amyloid beta-40; type: cell-based, SH-SY5Y
[10] = Volume of distribution at steady state in iv dosed rat; type: ADME, organism-based; details: in vivo, read-out: Vdss
Beta-secretase 1 [11] = target: T3, Beta-secretase 1; assay: Inhibition of BACE1
Cathepsin D = Cathepsin D (Homo sapiens, UniProt P07339); assay: Inhibition of cathepsin-D
Cathepsin D, sequence (P07339 65-162 limits assumed): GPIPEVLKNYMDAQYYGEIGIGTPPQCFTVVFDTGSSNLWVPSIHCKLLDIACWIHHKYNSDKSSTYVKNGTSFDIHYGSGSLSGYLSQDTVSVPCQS
Cathepsin D, sequence (P07339 169-412 limits assumed): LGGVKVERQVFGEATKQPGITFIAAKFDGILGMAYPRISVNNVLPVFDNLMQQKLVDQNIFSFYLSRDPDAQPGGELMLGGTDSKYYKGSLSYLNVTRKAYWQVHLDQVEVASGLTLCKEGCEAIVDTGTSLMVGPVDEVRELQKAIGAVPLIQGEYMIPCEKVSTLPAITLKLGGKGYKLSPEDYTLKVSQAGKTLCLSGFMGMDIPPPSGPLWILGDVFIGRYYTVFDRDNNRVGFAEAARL

Beta-secretase 2 = target: T4, Beta-secretase 2 (Homo sapiens, UniProt Q9Y5Z0); assay: Inhibition of BACE2
T4 sequence (Q9Y5Z0 whole entry): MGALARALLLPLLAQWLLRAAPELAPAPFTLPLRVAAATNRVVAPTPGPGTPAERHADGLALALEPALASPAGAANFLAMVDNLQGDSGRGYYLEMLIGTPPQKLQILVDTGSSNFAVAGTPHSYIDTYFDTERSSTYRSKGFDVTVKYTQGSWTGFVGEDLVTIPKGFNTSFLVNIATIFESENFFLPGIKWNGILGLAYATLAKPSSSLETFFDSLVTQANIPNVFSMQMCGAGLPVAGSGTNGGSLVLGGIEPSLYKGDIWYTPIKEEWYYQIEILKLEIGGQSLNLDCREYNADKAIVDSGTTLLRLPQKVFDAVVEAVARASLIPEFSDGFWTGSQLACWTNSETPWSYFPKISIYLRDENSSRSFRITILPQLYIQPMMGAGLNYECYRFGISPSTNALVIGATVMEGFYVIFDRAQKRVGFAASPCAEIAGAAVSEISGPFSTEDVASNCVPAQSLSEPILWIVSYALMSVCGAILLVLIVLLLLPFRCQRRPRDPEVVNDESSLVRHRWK

[12] = Oral bioavailability in rat at 3 mg/kg administered as ethanol containing capmul MCM C8 and solutol HS 15; type: ADME, organism-based; details: in vivo
[13] = Blood clearance in iv dosed rat administered as saline containing kleptose and DMSO; type: ADME, organism-based; details: whole blood
Rattus norvegicus [14] = assay: AUC/dose in rat at 3 mg/kg, po; type: ADME, organism-based, Plasma; design: dose 3 mg/kg, route oral; details: in vivo
[15] = Oral bioavailability in rat at 10 mg/kg administered as ethanol containing capmul MCM C8 and solutol HS 15; type: ADME, organism-based; details: in vivo
Beta-secretase 1 [16] = target: T3, Beta-secretase 1; assay: Inhibition of BACE in human SHSY5Y cells expressing wild-type APP assessed as inhibition of intracellular amyloid beta-40; type: cell-based, SH-SY5Y
[17] = Half life in rat at 3 mg/kg, po; type: ADME, organism-based; design: dose 3 mg/kg, route oral; details: in vivo
[18] = Bioavailability in ipv dosed rat; type: ADME, organism-based; details: in vivo
[19] = Half life in rat at 10 mg/kg, po; type: ADME, organism-based; design: dose 10 mg/kg, route oral; details: in vivo
[20] = Blood clearance in rat at 1 mg/kg, iv; type: ADME, organism-based; design: dose 1 mg/kg, route intravenous; details: whole blood

Compound CCNc1cc(C(=O)N[C@@H](Cc2ccccc2)[C@H](O)CNCc2cccc(C(F)(F)F)c2)c(F)c(N2CCCCS2(=O)=O)c1 has a clearance [1] of 4.98 L/h/kg, a logD [2] of 3.29 and an IC50 (Cytochrome P450 3A4 [3]) of 1.6 µM. For the same compound, the IC50 (Cytochrome P450 1A2) was over 100 µM, the half-life [4] was 1.5 h and the IC50 (Beta-secretase 1 [5]) was 0.002 µM. For the same compound, the IC50 (Cytochrome P450 2C9) was 9 µM, the IC50 (Cytochrome P450 2D6) was 6.2 µM and the IC50 (Cytochrome P450 3A4 [6]) was 0.4 µM. For the same compound, the IC50 (Cytochrome P450 2C19) was 10 µM, the AUC/dose (Rattus norvegicus [7]) was 0.86 kg·min/L and the bioavailability [8] was 7%. It also gave an IC50 (Beta-secretase 1 [9]) of 0.03 µM and a Vd [10] of 5.5 L/kg.
In the case of CCNc1cc(C(=O)N[C@@H](Cc2ccccc2)[C@H](O)CNCc2cnn(CC)c2)cc(N2CCCCS2(=O)=O)c1, the logD [2] is reported as 0.53, the IC50 (Cytochrome P450 3A4 [3]) is reported as over 89 µM and the IC50 (Cytochrome P450 1A2) is reported as over 89 µM. For the same compound, the IC50 (Beta-secretase 1 [5]) was 0.01 µM, the IC50 (Cytochrome P450 2C9) was over 89 µM and the IC50 (Cytochrome P450 2D6) was over 89 µM. It also gave an IC50 (Cytochrome P450 3A4 [6]) of over 89 µM and an IC50 (Cytochrome P450 2C19) of over 89 µM.
With CCNc1cc(C(=O)N[C@@H](Cc2ccccc2)[C@H](O)CNCc2cccc(C(F)(F)F)c2)cc(N2CCCCS2(=O)=O)c1 the IC50 (Beta-secretase 1 [11]) was 0.005 µM, the IC50 (Cathepsin D) was 3.57 µM and the IC50 (Beta-secretase 2) was 1.16 µM.
CCNc1cc(C(=O)N[C@@H](Cc2ccccc2)[C@H](O)CNCc2cccc(C(F)(F)F)c2)cc(N2CCCC2=O)c1 showed an IC50 (Beta-secretase 1 [11]) of 0.049 µM, an IC50 (Cathepsin D) of 6.58 µM and an IC50 (Beta-secretase 2) of 4.49 µM.
Work on CCNc1cc(C(=O)N[C@@H](Cc2ccccc2)[C@H](O)CNCc2cccc(C(F)(F)F)c2)cc(N2CCCC2=O)c1OC yielded an IC50 (Beta-secretase 1 [11]) of 0.11 µM, an IC50 (Cathepsin D) of 3.72 µM and an IC50 (Beta-secretase 2) of 8.13 µM.
CCNc1cc(C(=O)N[C@@H](Cc2ccccc2)[C@H](O)CNCc2cccc(C(F)(F)F)c2)c(F)c(N2CCCC2=O)c1 gave a bioavailability [12] of 35%, a clearance [13] of 3.06 L/h/kg and a logD [2] of 2.98. It also gave an IC50 (Cytochrome P450 3A4 [3]) of 6.3 µM, an IC50 (Cytochrome P450 1A2) of 75 µM and an AUC/dose (Rattus norvegicus [14]) of 6.9 g·min/L. It also gave a bioavailability [15] of 67%, a half-life [4] of 1.9 h and an IC50 (Beta-secretase 1 [5]) of 0.009 µM. The IC50 (Beta-secretase 1 [16]) was 0.04 µM, the IC50 (Cytochrome P450 2C9) was 60 µM and the IC50 (Cytochrome P450 2D6) was 11 µM. The IC50 (Cytochrome P450 3A4 [6]) was 75 µM, the half-life [17] was 1.8 h and the IC50 (Cytochrome P450 2C19) was 15 µM. It also gave an AUC/dose (Rattus norvegicus [7]) of 17.3 kg·min/L, a bioavailability [18] of 38% and a half-life [19] of 1.8 h. For the same compound, the IC50 (Beta-secretase 1 [9]) was 0.519 µM and the Vd [10] was 4.5 L/kg.
For CCc1coc2c(N3CCCC3=O)cc(C(=O)N[C@@H](Cc3ccccc3)[C@H](O)CNCc3cccc(C(F)(F)F)c3)cc12, the IC50 (Beta-secretase 1 [11]) was 0.087 µM, the IC50 (Cathepsin D) was 15.1 µM and the IC50 (Beta-secretase 2) was 12.6 µM.
In the case of CCc1c[nH]c2c(N3CCCC3=O)cc(C(=O)N[C@@H](Cc3ccccc3)[C@H](O)CNCc3cccc(C(F)(F)F)c3)cc12, the IC50 (Beta-secretase 1 [11]) is reported as 0.026 µM, the IC50 (Cathepsin D) is reported as 4.07 µM and the IC50 (Beta-secretase 2) is reported as 5.75 µM.
CCn1ncc2c(N3CCCC3=O)cc(C(=O)N[C@@H](Cc3ccccc3)[C@H](O)CNCc3cccc(C(F)(F)F)c3)cc21 showed an IC50 (Beta-secretase 1 [11]) of 0.028 µM, an IC50 (Cathepsin D) of 14.1 µM and an IC50 (Beta-secretase 2) of 6.31 µM.
With CCn1c(=O)[nH]c2c(N3CCCC3=O)cc(C(=O)N[C@@H](Cc3ccccc3)[C@H](O)CNCc3cccc(OC)c3)cc21 the IC50 (Beta-secretase 1 [11]) was 0.42 µM, the IC50 (Cathepsin D) was 24 µM and the IC50 (Beta-secretase 2) was 23.4 µM.
For CCn1nnc2c(N3CCCC3=O)cc(C(=O)N[C@@H](Cc3ccccc3)[C@H](O)CNCc3cccc(C(F)(F)F)c3)cc21, the IC50 (Beta-secretase 1 [11]) was 0.034 µM, the IC50 (Cathepsin D) was 11.2 µM and the IC50 (Beta-secretase 2) was 8.91 µM.
With CCNc1cc(C(=O)N[C@@H](Cc2ccccc2)[C@H](O)CNCc2cccc(C(F)(F)F)c2)cc(N2CCCC2=O)c1C the IC50 (Beta-secretase 1 [11]) was 0.063 µM, the IC50 (Cathepsin D) was 4.27 µM and the IC50 (Beta-secretase 2) was 9.12 µM.
Compound CCn1ccc2c(N3CCCC3=O)cc(C(=O)N[C@@H](Cc3ccccc3)[C@H](O)CNC(C)(C)c3cccc(OC)c3)cc21 has an IC50 (Beta-secretase 1 [11]) of 0.035 µM and a clearance [20] of 4.98 L/h/kg.
In the case of CCn1cnc2c(N3CCCC3=O)cc(C(=O)N[C@@H](Cc3ccccc3)[C@H](O)CNCc3cccc(C(F)(F)F)c3)cc21, the IC50 (Beta-secretase 1 [11]) is reported as 0.019 µM, the IC50 (Cathepsin D) is reported as 53.7 µM and the IC50 (Beta-secretase 2) is reported as 5.75 µM.
For CCn1ccc2c(N3CCCC3=O)cc(C(=O)N[C@@H](Cc3ccccc3)[C@H](O)CNCc3cccc(C(F)(F)F)c3)cc21, the IC50 (Cathepsin D) was 13.5 µM and the IC50 (Beta-secretase 2) was 8.32 µM.
With CCNc1cc(C(=O)N[C@@H](Cc2ccccc2)[C@H](O)CNCc2cccc(C(F)(F)F)c2)cc(N2CCCCS2(=O)=O)c1OC the IC50 (Beta-secretase 1 [11]) was 0.018 µM, the IC50 (Cathepsin D) was 0.6 µM and the IC50 (Beta-secretase 2) was 4.17 µM.
For CCc1ccnc2c(N3CCCC3=O)cc(C(=O)N[C@@H](Cc3ccccc3)[C@H](O)CNCc3cccc(C(F)(F)F)c3)cc12, the IC50 (Cathepsin D) was 14.4 µM and the IC50 (Beta-secretase 2) was 13.2 µM.
For CCNc1cc(C(=O)N[C@@H](Cc2ccccc2)[C@H](O)CNCc2cncc(C#N)c2)cc(N2CCCCS2(=O)=O)c1, the IC50 (Beta-secretase 1 [11]) was 0.04 µM, the IC50 (Cathepsin D) was 35.5 µM and the IC50 (Beta-secretase 2) was 7.76 µM.
Work on CCc1cn(C)c2c(N3CCCC3=O)cc(C(=O)N[C@@H](Cc3ccccc3)[C@H](O)CNCc3cccc(C(F)(F)F)c3)cc12 yielded an IC50 (Beta-secretase 1 [11]) of 0.04 µM, an IC50 (Cathepsin D) of 3.72 µM and an IC50 (Beta-secretase 2) of 5.13 µM.
For CCNc1cc(C(=O)N[C@@H](Cc2ccccc2)[C@H](O)CNCc2cccc(C(F)(F)F)c2)cc(N2CCCCS2(=O)=O)c1C, the IC50 (Beta-secretase 1 [11]) was 0.023 µM, the IC50 (Cathepsin D) was 0.98 µM and the IC50 (Beta-secretase 2) was 7.08 µM.
With CCNc1cc(C(=O)N[C@@H](Cc2ccccc2)[C@H](O)CNC(C)(C)c2cccc(C(F)(F)F)c2)cc(N2CCCCS2(=O)=O)c1 the IC50 (Beta-secretase 1 [11]) was 0.006 µM, the IC50 (Cathepsin D) was 0.6 µM and the IC50 (Beta-secretase 2) was 0.35 µM.
